This note sets out measurements from ChEMBL document CHEMBL5715260, “Selectivity Literature for EUbOPEN Chemogenomic Library” (2024).

Assay [1] has as its target T1, Hepatocyte nuclear factor 4-alpha (Homo sapiens) (UniProt P41235).
T1 sequence (whole entry): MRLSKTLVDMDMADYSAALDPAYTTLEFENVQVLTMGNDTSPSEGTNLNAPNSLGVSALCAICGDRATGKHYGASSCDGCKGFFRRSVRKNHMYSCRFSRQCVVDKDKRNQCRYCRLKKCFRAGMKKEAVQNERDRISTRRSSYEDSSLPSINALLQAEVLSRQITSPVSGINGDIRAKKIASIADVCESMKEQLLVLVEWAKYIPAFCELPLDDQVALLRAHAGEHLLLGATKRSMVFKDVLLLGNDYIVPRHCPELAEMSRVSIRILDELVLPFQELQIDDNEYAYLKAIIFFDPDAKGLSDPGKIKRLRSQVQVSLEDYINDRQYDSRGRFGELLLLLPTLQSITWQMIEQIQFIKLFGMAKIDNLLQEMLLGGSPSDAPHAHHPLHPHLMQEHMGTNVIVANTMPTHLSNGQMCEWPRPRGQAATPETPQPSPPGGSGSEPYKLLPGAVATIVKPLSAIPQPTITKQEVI
In words: Selectivity interaction (Reporter gene assay) EUB0000188b HNF4A. More on the design: recommended concentration 1 uM. (A reporter such as luciferase makes a cellular process visible.)

For assay [2], the target named is Nuclear receptor subfamily 2 group E member 1 (Homo sapiens) (UniProt Q9Y466). In words: Selectivity interaction (Reporter gene assay) EUB0000188b NR2E1. More on the design: recommended concentration 1 uM.
Sequence of Nuclear receptor subfamily 2 group E member 1 (Homo sapiens) (Q9Y466 whole entry): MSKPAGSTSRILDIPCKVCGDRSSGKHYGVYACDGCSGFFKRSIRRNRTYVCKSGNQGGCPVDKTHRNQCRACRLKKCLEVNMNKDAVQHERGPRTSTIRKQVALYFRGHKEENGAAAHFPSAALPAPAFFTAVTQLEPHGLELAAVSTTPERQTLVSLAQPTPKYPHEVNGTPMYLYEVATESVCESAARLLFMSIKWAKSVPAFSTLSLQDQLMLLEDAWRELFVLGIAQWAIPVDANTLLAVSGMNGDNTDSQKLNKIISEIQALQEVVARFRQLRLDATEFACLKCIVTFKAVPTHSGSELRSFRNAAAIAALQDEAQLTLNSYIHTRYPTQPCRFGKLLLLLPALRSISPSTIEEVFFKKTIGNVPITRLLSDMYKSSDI
The target of assay [3] is Nuclear receptor subfamily 4immunitygroup A member 1 (Homo sapiens) (UniProt P22736). In words: Selectivity interaction (Reporter gene assay) EUB0000188b NR4A1. More on the design: recommended concentration 1 uM.
Sequence of Nuclear receptor subfamily 4immunitygroup A member 1 (Homo sapiens) (P22736 whole entry): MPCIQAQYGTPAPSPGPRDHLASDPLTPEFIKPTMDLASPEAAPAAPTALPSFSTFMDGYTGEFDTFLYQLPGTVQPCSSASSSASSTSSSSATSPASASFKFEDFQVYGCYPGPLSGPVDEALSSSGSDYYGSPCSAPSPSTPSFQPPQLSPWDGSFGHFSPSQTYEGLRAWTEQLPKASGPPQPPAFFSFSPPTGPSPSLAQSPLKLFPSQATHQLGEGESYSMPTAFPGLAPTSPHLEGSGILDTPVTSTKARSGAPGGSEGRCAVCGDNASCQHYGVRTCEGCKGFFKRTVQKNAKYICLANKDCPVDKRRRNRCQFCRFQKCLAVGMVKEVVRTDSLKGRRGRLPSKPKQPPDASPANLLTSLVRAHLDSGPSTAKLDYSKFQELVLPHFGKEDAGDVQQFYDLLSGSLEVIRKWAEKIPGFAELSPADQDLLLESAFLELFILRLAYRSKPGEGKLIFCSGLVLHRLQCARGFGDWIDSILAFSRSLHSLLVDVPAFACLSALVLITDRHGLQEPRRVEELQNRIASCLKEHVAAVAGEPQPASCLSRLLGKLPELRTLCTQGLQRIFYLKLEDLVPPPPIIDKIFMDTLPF
For assay [4], the target named is T2, Alpha trans-inducing protein (Human alphaherpesvirus 1) (UniProt A0A5J6DW59). In words: Selectivity interaction (Reporter gene assay) EUB0000188b UL48. Also on record: recommended concentration 1 uM.
T2 sequence (A0A5J6DW59 as listed by the source): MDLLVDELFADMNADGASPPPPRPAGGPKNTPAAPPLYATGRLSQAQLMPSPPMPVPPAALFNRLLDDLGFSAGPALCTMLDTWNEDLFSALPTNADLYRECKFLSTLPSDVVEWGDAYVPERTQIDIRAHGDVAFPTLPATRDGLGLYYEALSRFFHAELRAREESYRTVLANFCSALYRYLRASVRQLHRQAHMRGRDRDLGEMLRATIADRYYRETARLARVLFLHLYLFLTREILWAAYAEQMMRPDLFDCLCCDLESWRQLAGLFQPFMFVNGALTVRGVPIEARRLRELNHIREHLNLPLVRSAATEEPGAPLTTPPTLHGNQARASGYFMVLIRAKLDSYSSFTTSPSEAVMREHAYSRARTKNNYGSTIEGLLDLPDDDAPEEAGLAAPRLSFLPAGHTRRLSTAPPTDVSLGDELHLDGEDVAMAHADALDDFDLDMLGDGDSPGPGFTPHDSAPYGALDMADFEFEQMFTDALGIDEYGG
Assay [5] deals with T3, Retinoic acid receptor RXR-alpha (Homo sapiens) (UniProt P19793).
T3 sequence (whole entry): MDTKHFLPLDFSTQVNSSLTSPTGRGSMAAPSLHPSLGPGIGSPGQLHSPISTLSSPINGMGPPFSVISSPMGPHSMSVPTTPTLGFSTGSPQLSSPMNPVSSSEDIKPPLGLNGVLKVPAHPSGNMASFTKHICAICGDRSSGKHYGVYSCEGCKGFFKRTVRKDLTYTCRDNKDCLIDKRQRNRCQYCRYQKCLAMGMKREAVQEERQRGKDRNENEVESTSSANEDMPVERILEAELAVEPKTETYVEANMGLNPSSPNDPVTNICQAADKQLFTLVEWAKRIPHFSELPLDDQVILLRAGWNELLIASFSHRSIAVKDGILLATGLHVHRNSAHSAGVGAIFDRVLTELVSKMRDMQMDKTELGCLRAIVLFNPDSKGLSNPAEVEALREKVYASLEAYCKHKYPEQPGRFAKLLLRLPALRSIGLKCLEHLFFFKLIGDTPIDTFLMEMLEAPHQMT
In words: Selectivity interaction (Reporter gene assay) EUB0000188b RXRA. More on the design: recommended concentration 1 uM. The settings on record: reference bexarotene 1 uM, Selectivity number of off-targets 0.0, Selectivity number of targets 1.0, Source Knowledge inhouse.

Assay [6] deals with T4, Nuclear receptor subfamily 2 group C member 1 (Homo sapiens) (UniProt P13056).
T4 sequence (whole entry): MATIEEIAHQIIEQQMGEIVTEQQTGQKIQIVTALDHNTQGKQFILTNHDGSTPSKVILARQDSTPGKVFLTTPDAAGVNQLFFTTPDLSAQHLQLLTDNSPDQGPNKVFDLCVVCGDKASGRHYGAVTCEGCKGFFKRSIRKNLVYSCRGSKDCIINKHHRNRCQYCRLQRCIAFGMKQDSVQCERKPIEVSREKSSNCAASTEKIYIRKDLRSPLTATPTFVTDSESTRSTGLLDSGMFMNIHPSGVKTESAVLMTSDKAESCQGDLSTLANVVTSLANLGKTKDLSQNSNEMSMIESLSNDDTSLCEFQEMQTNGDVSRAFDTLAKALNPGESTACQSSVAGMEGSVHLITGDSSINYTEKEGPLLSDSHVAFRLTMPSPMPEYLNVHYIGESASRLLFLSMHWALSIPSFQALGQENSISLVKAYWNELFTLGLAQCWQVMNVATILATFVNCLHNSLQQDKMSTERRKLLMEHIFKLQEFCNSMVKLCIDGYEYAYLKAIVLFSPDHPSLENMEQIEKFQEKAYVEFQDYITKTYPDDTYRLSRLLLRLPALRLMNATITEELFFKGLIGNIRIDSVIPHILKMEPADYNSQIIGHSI
In words: Selectivity interaction (Reporter gene assay) EUB0000188b NR2C1. Also on record: recommended concentration 1 uM.

In assay [7] the target is Steroidogenic factor 1 (Homo sapiens) (UniProt Q13285). In words: Selectivity interaction (Reporter gene assay) EUB0000188b NR5A1. Also on record: recommended concentration 1 uM.
Sequence of Steroidogenic factor 1 (Homo sapiens) (Q13285 whole entry): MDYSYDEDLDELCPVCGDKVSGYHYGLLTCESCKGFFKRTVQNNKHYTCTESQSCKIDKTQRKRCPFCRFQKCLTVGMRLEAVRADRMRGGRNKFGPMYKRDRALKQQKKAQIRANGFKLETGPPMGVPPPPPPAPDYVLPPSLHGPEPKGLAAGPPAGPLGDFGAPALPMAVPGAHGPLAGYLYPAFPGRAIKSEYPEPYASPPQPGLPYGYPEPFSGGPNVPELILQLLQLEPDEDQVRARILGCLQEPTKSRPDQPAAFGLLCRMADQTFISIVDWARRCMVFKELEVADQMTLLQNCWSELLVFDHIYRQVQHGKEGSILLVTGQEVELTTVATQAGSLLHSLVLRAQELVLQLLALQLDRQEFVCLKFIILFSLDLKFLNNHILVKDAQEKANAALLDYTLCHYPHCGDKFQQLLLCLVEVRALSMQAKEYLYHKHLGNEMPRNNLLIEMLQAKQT
Assay [8] has as its target T2, Alpha trans-inducing protein (Human alphaherpesvirus 1). In words: Selectivity interaction (Reporter gene assay) EUB0000185b UL48. Also on record: recommended concentration 1 uM.
For assay [9], the target named is Peroxisome proliferator-activated receptor delta (Homo sapiens) (UniProt Q03181). In words: Selectivity interaction (Reporter gene assay) EUB0000185b PPARD. Also on record: recommended concentration 1 uM. Particulars: screened at recom. conc., Selectivity number of off-targets 1.0, Selectivity number of targets 19.0, Source Knowledge inhouse.
Sequence of Peroxisome proliferator-activated receptor delta (Homo sapiens) (Q03181 whole entry): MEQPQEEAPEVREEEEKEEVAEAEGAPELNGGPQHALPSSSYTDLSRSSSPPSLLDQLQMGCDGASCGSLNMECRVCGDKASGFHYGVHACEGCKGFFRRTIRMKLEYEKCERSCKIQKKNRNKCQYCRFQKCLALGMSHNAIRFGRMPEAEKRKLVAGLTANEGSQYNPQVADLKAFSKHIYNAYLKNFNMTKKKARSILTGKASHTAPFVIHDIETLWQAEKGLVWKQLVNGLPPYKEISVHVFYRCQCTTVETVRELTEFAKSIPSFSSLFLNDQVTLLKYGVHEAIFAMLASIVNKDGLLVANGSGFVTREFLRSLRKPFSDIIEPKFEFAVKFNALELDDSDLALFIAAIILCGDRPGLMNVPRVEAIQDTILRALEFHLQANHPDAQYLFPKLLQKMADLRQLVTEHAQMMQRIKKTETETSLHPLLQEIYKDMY
In assay [10] the target is T1, Hepatocyte nuclear factor 4-alpha (Homo sapiens). In words: Selectivity interaction (Reporter gene assay) EUB0000185b HNF4A. More on the design: recommended concentration 1 uM.
In assay [11] the target is Nuclear receptor subfamily 2 group E member 1 (Homo sapiens) (UniProt Q9Y466). In words: Selectivity interaction (Reporter gene assay) EUB0000185b NR2E1. More on the design: recommended concentration 1 uM.
In assay [12] the target is Nuclear receptor subfamily 4immunitygroup A member 1 (Homo sapiens) (UniProt P22736). In words: Selectivity interaction (Reporter gene assay) EUB0000185b NR4A1. More on the design: recommended concentration 1 uM.
Assay [13] concerns the target Steroidogenic factor 1 (Homo sapiens) (UniProt Q13285). In words: Selectivity interaction (Reporter gene assay) EUB0000185b NR5A1. More on the design: recommended concentration 1 uM.
In assay [14] the target is T3, Retinoic acid receptor RXR-alpha (Homo sapiens). In words: Selectivity interaction (Reporter gene assay) EUB0000185b RXRA. More on the design: recommended concentration 1 uM. Particulars: reference bexarotene 1 uM, Selectivity number of off-targets 0.0, Selectivity number of targets 1.0, Source Knowledge inhouse.
The target of assay [15] is T4, Nuclear receptor subfamily 2 group C member 1 (Homo sapiens). In words: Selectivity interaction (Reporter gene assay) EUB0000185b NR2C1. Also on record: recommended concentration 1 uM.
The target of assay [16] is Nuclear receptor subfamily 2 group E member 1 (Homo sapiens) (UniProt Q9Y466).
In assay [17] the target is Nuclear receptor subfamily 4immunitygroup A member 1 (Homo sapiens) (UniProt P22736).
The target in assay [18] is T2, Alpha trans-inducing protein (Human alphaherpesvirus 1). In words: Selectivity interaction (Reporter gene assay) EUB0000040b UL48. More on the design: recommended concentration 1 uM.
The target of assay [19] is T4, Nuclear receptor subfamily 2 group C member 1 (Homo sapiens). In words: Selectivity interaction (Reporter gene assay) EUB0000182b NR2C1. More on the design: recommended concentration 1 uM.
The target of assay [20] is Steroidogenic factor 1 (Homo sapiens) (UniProt Q13285). In words: Selectivity interaction (Reporter gene assay) EUB0000182b NR5A1. More on the design: recommended concentration 1 uM.
Assay [21] deals with T2, Alpha trans-inducing protein (Human alphaherpesvirus 1). In words: Selectivity interaction (Reporter gene assay) EUB0000182b UL48. More on the design: recommended concentration 1 uM.
Assay [22] concerns the target T3, Retinoic acid receptor RXR-alpha (Homo sapiens). In words: Selectivity interaction (Reporter gene assay) EUB0000182b RXRA. More on the design: recommended concentration 1 uM. The settings on record: reference bexarotene 1 uM, Selectivity number of off-targets 0.0, Selectivity number of targets 1.0, Source Knowledge inhouse.
Assay [23] deals with Nuclear receptor subfamily 2 group E member 1 (Homo sapiens) (UniProt Q9Y466). In words: Selectivity interaction (Reporter gene assay) EUB0000182b NR2E1. More on the design: recommended concentration 1 uM.
Assay [24] addresses T1, Hepatocyte nuclear factor 4-alpha (Homo sapiens). In words: Selectivity interaction (Reporter gene assay) EUB0000182b HNF4A. Also on record: recommended concentration 1 uM.
Assay [25] concerns the target Nuclear receptor subfamily 4immunitygroup A member 1 (Homo sapiens) (UniProt P22736). In words: Selectivity interaction (Reporter gene assay) EUB0000182b NR4A1. More on the design: recommended concentration 1 uM.
The target of assay [26] is T4, Nuclear receptor subfamily 2 group C member 1 (Homo sapiens). In words: Selectivity interaction (Reporter gene assay) EUB0000190b NR2C1. Also on record: recommended concentration 1 uM.
Assay [27] concerns the target T2, Alpha trans-inducing protein (Human alphaherpesvirus 1). In words: Selectivity interaction (Reporter gene assay) EUB0000190b UL48. More on the design: recommended concentration 1 uM.
Assay [28] has as its target Steroidogenic factor 1 (Homo sapiens) (UniProt Q13285). In words: Selectivity interaction (Reporter gene assay) EUB0000190b NR5A1. More on the design: recommended concentration 1 uM.
Assay [29] has as its target Nuclear receptor subfamily 4immunitygroup A member 1 (Homo sapiens) (UniProt P22736). In words: Selectivity interaction (Reporter gene assay) EUB0000190b NR4A1. Also on record: recommended concentration 1 uM.
Assay [30] concerns the target Nuclear receptor subfamily 2 group E member 1 (Homo sapiens) (UniProt Q9Y466). In words: Selectivity interaction (Reporter gene assay) EUB0000190b NR2E1. Also on record: recommended concentration 1 uM.
Assay [31] concerns the target T1, Hepatocyte nuclear factor 4-alpha (Homo sapiens). In words: Selectivity interaction (Reporter gene assay) EUB0000190b HNF4A. Also on record: recommended concentration 1 uM.
Assay [32] has as its target T3, Retinoic acid receptor RXR-alpha (Homo sapiens). In words: Selectivity interaction (Reporter gene assay) EUB0000190b RXRA. Also on record: recommended concentration 1 uM. Particulars: reference bexarotene 1 uM, Selectivity number of off-targets 0.0, Selectivity number of targets 1.0, Source Knowledge inhouse.

Molecules are shown by their SMILES.

For `CCCc1c(OCCCOc2ccc(OCC(=O)O)cc2)ccc(C(C)=O)c1O`, the Fold activation in assay [1] was 1.1; in [2], 1.34; in [3], 1.22; in assay [6] it was 1.36. This compound also came in with a P-value in assay [4] of 1.09e-07. The Relative activation in [5] was determined as 1.18%. The compound also registered a Remaining activity in assay [7] of 0.985.
In turn, `CC(C)(Sc1ccc(CCN(CCCCC2CCCCC2)C(=O)NC2CCCCC2)cc1)C(=O)O` came in with a P-value in assay [8] of 2.26e-05. Also, the Fold activation in assay [9] was found to be 19.1; in assay [12] it was 1.03; in assay [15], 1.49. Further, the Remaining activity worked out at 0.944 in [10], 0.915 in assay [11] and 0.897 in [13]. This compound had a Relative activation in assay [14] of 0.845%.
With `O=S(=O)(c1ccccc1)N(CC(F)(F)F)c1ccc(C(O)(C(F)(F)F)C(F)(F)F)cc1`, the figures for the Remaining activity in [16] and in [17] were 0.742 and 0.903, respectively. The P-value in [18] turned out to be 0.000575.
As for `COC(=O)/C=C/c1cccc(N(Cc2ccc(-c3ccc(N(C)C)cc3)cc2)C(=O)C2CCCCC2)c1`, the Fold activation in assay [19] was determined as 1.38; in assay [20] it was 1.09; in assay [23], 1.24; in assay [24], 1.05; in [25], 1.14. Besides, the P-value in [21] is 2.38e-08. In [22], this compound registered a Relative activation of 0.492%.
As to `CN(CCOc1ccc(CC2SC(=O)NC2=O)cc1)c1ccccn1` (configuration not stated), the Fold activation was 1.17 in [26], 1.08 in assay [28], 1.05 in assay [30] and 1.09 in assay [31]. Further, the P-value in assay [27] is 2.07e-12. This compound also showed a Remaining activity in assay [29] of 0.964. This compound had a Relative activation in assay [32] of 1.04%.
